Columns and labels:
Format in all cases: cell-based, human
TCC 4.2E1 [1] = experiment: Cytolysis assay (4-hour 51Cr release), CD4 TCC 4.2E1; conditions: E:T 20:1
Method: (§1) Cytolysis assays were performed in triplicate using 4-hour [^51]Cr release as described (D. M. Koelle et al., 1993, J. Clin. Invest., 91:961-968). […] W. Kwok et al., 1996,J. Exp. Med., 183:1253-1258). The effector to target ratio was 20:1. Spontaneous release was less than 28%.

TCC 4.2E1 [2] = experiment: T-cell proliferation ([3H]thymidine incorporation), TCC 4.2E1; conditions: FIG. 3; peptides used at 3 μM; autologous EBV-LCL APC
Method: (§2) Triplicate proliferation assay wells contained 10^4 cloned T-cells, 10^5 irradiated (3300 rad) PBMC or 2.5×10^4 irradiated (8000 rad) EBV-LCL as antigen presenting cells (APC), and antigen in 200 μl T-cell media (D. M. Koelle et al., 1997, Human. Immunol., 53:195-205) in 96-well U-bottom plates. When heat-killed bacteria were used as antigen, the equivalent of 10^5 cfu/well (prior to inactivation) was added and gentamicin (20 μg/ml) was included. After 72 hours, 1 μCi/well ^[3]H thymidine was added for 18 hours, cells were harvested, and incorporation of thymidine evaluated by liquid scintillation counting. Standard deviations were less than 10% of the mean values. Results are reported as mean cpm or as delta cpm=mean cpm for experimental antigen minus mean cpm for control antigen. Control antigen was mock-infected cell lysate for whole viral antigens and pUEX2-derived β-galactosidase for recombinant protein preparations. To determine the reactivity of bulk-cultured lesion-derived T-cells, fusion proteins or control β-galactosidase were used at 10 μg/ml. […]

lesion-derived T cells = experiment: Recognition of ICP0 epitopes by lesion-derived T cells; conditions: 743-751: CD8+ T cells, HLA allele B*0702
Description: The recognition event involves HLA allele B*0702, which is relatively common (approximately 10%) in the human population.

TCC RH.13 [3] = experiment: T-cell proliferation, TCC RH.13; conditions: for delta cpm [3H] thymidine incorporation compared to media: TCC RH.13, VP16 1-492 at 1 μg/ml, β-gal-VP16 180-492 at 1:1,000, peptides at 1 μM
Method: (§3) Triplicate proliferation assay wells contained 10^4 cloned T-cells, 10^5 irradiated (3300 rad) PBMC or 2.5×10^4 irradiated (8000 rad) EBV-LCL as antigen presenting cells (APC), and antigen in 200 μl T-cell media (D. M. Koelle et al., 1997, Human. Immunol., 53:195-205) in 96-well U-bottom plates. When heat-killed bacteria were used as antigen, the equivalent of 10^5 cfu/well (prior to inactivation) was added and gentamicin (20 μg/ml) was included. After 72 hours, 1 μCi/well ^[3]H thymidine was added for 18 hours, cells were harvested, and incorporation of thymidine evaluated by liquid scintillation counting. Standard deviations were less than 10% of the mean values. Results are reported as mean cpm or as delta cpm=mean cpm for experimental antigen minus mean cpm for control antigen. Control antigen was mock-infected cell lysate for whole viral antigens and pUEX2-derived β-galactosidase for recombinant protein preparations. To determine the reactivity of bulk-cultured lesion-derived T-cells, fusion proteins or control β-galactosidase were used at 10 μg/ml. To determine HLA restricting loci, HLA DR-specific mAb L243 (V. G. Preston et al., 1978, J. Virol., 28:499-517), HLA DP-specific mAb B7.21 (A. J. Watson et al., 1983, Nature, 304:358-360), or HLA DQ-specific mAb SpV-L3 (H. Spits et al., 1984, Eur. J. Immunol., 14:299-304) were used as described (D. M. Koelle et al., 1994, J. Virol. 68:2803-2810).
Three epitopes within VP16, all HSV-2 type-specific were previously identified (K. R. Jerome et al., 1998, J. Virol., 72:436-441), and proliferative responses to full-length VP16 in bulk cultures of genital HSV-2 lesion-infiltrating lymphocytes from four of seven (57%) patients were detected (D. M. Koelle et al., 1998, J. Clin. Invest., 101:1500-09). Additional peptide epitopes were sought within VP16 by two strategies. The first strategy involved screening panels of clones recovered from lesion vesicle fluid for reactivity with recombinant VP16 of HSV-2 followed by epitope mapping with peptides. […]

TCC RH.13 [4] = experiment: Cytolysis assay (4-hour 51Cr release), CD4 TCC RH.13; conditions: HSV-2 infected or 1 μM peptide, E:T 20:1
Method: as §1

TCC KM.7 [5] = experiment: Cytolysis assay (4-hour 51Cr release), CD4 TCC KM.7; conditions: HSV-2 infected or 1 μM peptide, E:T 20:1
Method: as §1

TCC KM.7 [6] = experiment: T-cell proliferation, TCC KM.7; conditions: VP16 1-492 at 1 μg/ml, β-gal-VP16 180-492 at 1:1,000, peptides at 1 μM
Method: as §2, with “preparations.” for “preparations. To determine the reactivity of bulk-cultured lesion-derived T-cells, fusion proteins or control β-galactosidase were used at 10 μg/ml.”
(§4) Three epitopes within VP16, all HSV-2 type-specific were previously identified (K. R. Jerome et al., 1998, J. Virol., 72:436-441), and proliferative responses to full-length VP16 in bulk cultures of genital HSV-2 lesion-infiltrating lymphocytes from four of seven (57%) patients were detected (D. M. Koelle et al., 1998, J. Clin. Invest., 101:1500-09). […]

TCC ESL4.34 [7] = experiment: Cytolysis assay (4-hour 51Cr release), CD4 TCC ESL4.34; conditions: HSV-2 infected or 1 μM peptide, E:T 10:1
Method: Cytolysis assays were performed in triplicate using 4-hour [^51]Cr release as described (D. M. Koelle et al., 1993, J. Clin. Invest., 91:961-968). […] W. Kwok et al., 1996,J. Exp. Med., 183:1253-1258). […] Spontaneous release was less than 28%.

TCC ESL4.34 [8] = experiment: T-cell proliferation, TCC ESL4.34; conditions: VP16 1-492 at 1 μg/ml, β-gal-VP16 180-492 at 1:1,000, peptides at 1 μM
Method: as §3

TCC ESL3.334 [9] = experiment: T-cell proliferation, TCC ESL3.334; conditions: VP16 1-492 at 1 μg/ml, β-gal-VP16 180-492 at 1:1,000, peptides at 1 μM
Method: as §3

TCC ESL3.334 [10] = experiment: Cytolysis assay (4-hour 51Cr release), CD4 TCC ESL3.334; conditions: HSV-2 infected or 1 μM peptide, E:T 20:1
Method: as §1

TCC 1A.B.25 [11] = experiment: T-cell proliferation, TCC 1A.B.25; conditions: VP16 1-492 at 1 μg/ml, β-gal-VP16 180-492 at 1:1,000, peptides at 1 μM
Method: as §3

TCC 1A.B.25 [12] = experiment: Cytolysis assay (4-hour 51Cr release), CD4 TCC 1A.B.25; conditions: HSV-2 infected or 1 μM peptide, E:T 20:1
Method: as §1

TCC SB.17 = experiment: T-cell proliferation, TCC SB.17; conditions: VP16 1-492 at 1 μg/ml, β-gal-VP16 180-492 at 1:1,000, peptides at 1 μM
Method: as §2, with “preparations.” for “preparations. To determine the reactivity of bulk-cultured lesion-derived T-cells, fusion proteins or control β-galactosidase were used at 10 μg/ml.”
as §4

TCC BM.17 = experiment: T-cell proliferation, TCC BM.17; conditions: VP16 1-492 at 1 μg/ml, β-gal-VP16 180-492 at 1:1,000, peptides at 1 μM
Method: as §2, with “preparations.” for “preparations. To determine the reactivity of bulk-cultured lesion-derived T-cells, fusion proteins or control β-galactosidase were used at 10 μg/ml.”
as §4

[13] = tested on: bulk cultures of lesion-infiltrating T-cells; experiment: Reactivity of bulk cultures of lesion-infiltrating T-cells with HSV antigens; conditions: four biopsies, day 5 of a buttock recurrence of HSV-2, patient 1; fusion proteins at 10 μg/ml
Method: as §2

[14] = allogeneic mismatched EBV-LCL targets

GGPVGAGGRSHAPPARTPKMTR (GGPVGAGGRSHAPARTPKMTR) [VP22 105-126]
percent specific release (TCC 4.2E1 [1]; allogeneic mismatched EBV-LCL targets, HSV-2 infected or 1 μM peptide): −1.7% | percent specific release (TCC 4.2E1 [1]; autologous EBV-LCL targets, HSV-2 infected or loaded with 1 μM peptide): 44.2% | stimulation of TCC 4.2E1 by overlapping peptides (TCC 4.2E1 [2]): stimulatory

ICP0 743-751: amino acids 743-751 of ICP0 (QGTLVGALD; UniProt P08393 743-751, looked up, fragment)
recognition by lesion-derived T cells (lesion-derived T cells): specific recognition

VP16 185-197: HSV-2 VP16 (UL48) peptide, amino acids 185-197
delta cpm [3H] thymidine incorporation compared to media (TCC RH.13 [3]): 55,614 cpm | stimulation of TCC RH.13 by VP16 peptides (TCC RH.13 [3]; epitope mapping with peptides): stimulatory | percent specific release (TCC RH.13 [4]; [14]): 0.3% | percent specific release (TCC RH.13 [4]; autologous EBV-LCL targets): 55.2%

VP16 209-221: HSV-2 VP16 (UL48) peptide, amino acids 209-221
percent specific release (TCC KM.7 [5]; [14]): 4.3% | percent specific release (TCC KM.7 [5]; autologous EBV-LCL targets): 43.6% | delta cpm [3H] thymidine incorporation compared to media (TCC KM.7 [6]): 10,075 cpm

VP16 393-405: previously reported HSV-2 VP16 peptide epitope, amino acids 393-405 (LVAPRMSFLSAGQ; UniProt P68336 393-405, looked up, fragment)
percent specific release (TCC ESL4.34 [7]; [14]): 0.6% | percent specific release (TCC ESL4.34 [7]; autologous EBV-LCL targets): 10.4% | delta cpm [3H] thymidine incorporation compared to media (TCC ESL4.34 [8]): 95,942 cpm

VP16 430-444: previously reported HSV-2 VP16 peptide epitope, amino acids 430-444 (EEVDMTPADALDDFD; UniProt P68336 430-444, looked up, fragment)
delta cpm [3H] thymidine incorporation compared to media (TCC ESL3.334 [9]): 27,283 cpm | percent specific release (TCC ESL3.334 [10]; [14]): 0.3% | percent specific release (TCC ESL3.334 [10]; autologous EBV-LCL targets): 33.6%

VP16 431-440: previously reported HSV-2 VP16 peptide epitope, amino acids 431-440 (EVDMTPADAL; UniProt P68336 431-440, looked up, fragment)
delta cpm [3H] thymidine incorporation compared to media (TCC 1A.B.25 [11]): 38,664 cpm | percent specific release (TCC 1A.B.25 [12]; [14]): 2.1% | percent specific release (TCC 1A.B.25 [12]; autologous EBV-LCL targets): 42.2%

B1: β-gal-VP16 180-492: β-galactosidase fusion protein with HSV-2 VP16 180-492 (protein)
chain: YLRASVRQLHRQAHMRGRNRDLREMLRTTIADRYYRETARLARVLFLHLYLFLSREILWAAYAEQMMRPDLFDGLCCDLESWRQLACLFQPLMFINGSLTVRGVPVEARRLRELNHIREHLNLPLVRSAAAEEPGAPLTTPPVLQGNQARSSGYFMLLIRAKLDSYSSVATSEGESVMREHAYSRGRTRNNYGSTIEGLLDLPDDDDAPAEAGLVAPRMSFLSAGQRPRRLSTTAPITDVSLGDELRLDGEEVDMTPADALDDFDLEMLGDVESPSPGMTHDPVSYGALDVDDFEFEQMFTDAMGIDDFGG
modifications: left off: large carriers
delta cpm [3H] thymidine incorporation compared to media (TCC ESL3.334 [9]): 16,434 cpm | delta cpm [3H] thymidine incorporation compared to media (TCC 1A.B.25 [11]): 41,123 cpm | delta cpm [3H] thymidine incorporation compared to media (TCC SB.17): 12,178 cpm | delta cpm [3H] thymidine incorporation compared to media (TCC BM.17): 45,958 cpm

B2: VP22 105-190: fusion protein containing VP22 amino acids 105-190 (protein)
chain: GGPVGAGGRSHAPPARTPKMTRGAPKASATPATDPARGRRPAQADSAVLLDAPAPTASGRTKTPAQGLAKKLHFSTAPPSPTAPWT
modifications: left off: large carriers
reactivity of bulk lesion-infiltrating T-cell cultures [13]: showed reactivity

B3: VP16 1-492: baculovirus-derived recombinant HSV-2 VP16 1-492 (protein)
chain: MDLLVDDLFADADGVSPPPPRPAGGPKNTPAAPPLYATGRLSQAQLMPSPPMPVPPAALFNRLLDDLGFSAGPALCTMLDTWNEDLFSGFPTNADMYRECKFLSTLPSDVIDWGDAHVPERSPIDIRAHGDVAFPTLPATRDELPSYYEAMAQFFRGELRAREESYRTVLANFCSALYRYLRASVRQLHRQAHMRGRNRDLREMLRTTIADRYYRETARLARVLFLHLYLFLSREILWAAYAEQMMRPDLFDGLCCDLESWRQLACLFQPLMFINGSLTVRGVPVEARRLRELNHIREHLNLPLVRSAAAEEPGAPLTTPPVLQGNQARSSGYFMLLIRAKLDSYSSVATSEGESVMREHAYSRGRTRNNYGSTIEGLLDLPDDDDAPAEAGLVAPRMSFLSAGQRPRRLSTTAPITDVSLGDELRLDGEEVDMTPADALDDFDLEMLGDVESPSPGMTHDPVSYGALDVDDFEFEQMFTDAMGIDDFGG
delta cpm [3H] thymidine incorporation compared to media (TCC ESL3.334 [9]): 22,754 cpm | delta cpm [3H] thymidine incorporation compared to media (TCC ESL4.34 [8]): 17,302 cpm | delta cpm [3H] thymidine incorporation compared to media (TCC RH.13 [3]): 32,991 cpm | delta cpm [3H] thymidine incorporation compared to media (TCC 1A.B.25 [11]): 24,919 cpm | delta cpm [3H] thymidine incorporation compared to media (TCC KM.7 [6]): 5,627 cpm
